Source: article PMC11076983, “Baicalin and baicalein from Scutellaria baicalensis Georgi alleviate aberrant neuronal suppression mediated by GABA from reactive astrocytes” (CNS Neuroscience & Therapeutics, 2024)
Read-outs that look alike come from different tables or passages of the source.

Target: T1, monoamine oxidase B (MAO-B) (Homo sapiens, UniProt P27338)
T1 construct: gene MAOB; Human recombinant MAO-B (Sigma, M7441)
T1 sequence (P27338 2-520): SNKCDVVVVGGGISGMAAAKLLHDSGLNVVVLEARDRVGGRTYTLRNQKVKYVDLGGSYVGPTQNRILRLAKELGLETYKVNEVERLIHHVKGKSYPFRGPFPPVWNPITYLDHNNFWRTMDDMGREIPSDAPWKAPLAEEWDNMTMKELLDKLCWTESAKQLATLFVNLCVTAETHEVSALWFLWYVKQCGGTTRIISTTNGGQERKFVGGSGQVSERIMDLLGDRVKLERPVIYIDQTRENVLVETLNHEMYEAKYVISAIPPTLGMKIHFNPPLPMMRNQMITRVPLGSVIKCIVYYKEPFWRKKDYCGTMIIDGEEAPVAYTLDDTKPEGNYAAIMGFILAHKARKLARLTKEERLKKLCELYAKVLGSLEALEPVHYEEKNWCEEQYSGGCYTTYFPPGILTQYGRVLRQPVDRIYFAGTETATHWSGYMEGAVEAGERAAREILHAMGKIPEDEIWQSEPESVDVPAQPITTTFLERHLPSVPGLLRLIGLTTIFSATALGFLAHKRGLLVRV
Experiment: in vitro MAO-B enzyme activity assay with recombinant human enzyme
Format: biochemical

IC50 (read-out: IC50) [µM]	Structure (SMILES)	IC50 [µM]
–	O=c1cc(-c2ccccc2)oc2cc(O)c(O)c(O)c12 [baicalein]	21
6.26	O=C(O)[C@H]1O[C@@H](Oc2cc3oc(-c4ccccc4)cc(=O)c3c(O)c2O)[C@H](O)[C@@H](O)[C@@H]1O [baicalin]	–
–	COc1c(O)cc(O)c2c(=O)cc(-c3ccccc3)oc12 [wogonin]	79.2
